Data from ChEMBL document CHEMBL4396905, “Design, synthesis and in vitro evaluation of 6-amide-2-aryl benzoxazole/benzimidazole derivatives against tumor cells by inhibiting VEGFR-2 kinase” (Eur J Med Chem, 2019).
Active and inactive are the calls of the source. The calls are words filed in the database; no cut-off is given here.

Assays:
[1] = target: T1, Vascular endothelial growth factor receptor 2 (Homo sapiens, UniProt P35968); assay: Inhibition of VEGFR2 (unknown origin) using Poly (Glu, Tyr) 4:1 as substrate preincubated with substrate followed by enzyme challenge for 1 hr by ELISA
T1 sequence (P35968 whole entry): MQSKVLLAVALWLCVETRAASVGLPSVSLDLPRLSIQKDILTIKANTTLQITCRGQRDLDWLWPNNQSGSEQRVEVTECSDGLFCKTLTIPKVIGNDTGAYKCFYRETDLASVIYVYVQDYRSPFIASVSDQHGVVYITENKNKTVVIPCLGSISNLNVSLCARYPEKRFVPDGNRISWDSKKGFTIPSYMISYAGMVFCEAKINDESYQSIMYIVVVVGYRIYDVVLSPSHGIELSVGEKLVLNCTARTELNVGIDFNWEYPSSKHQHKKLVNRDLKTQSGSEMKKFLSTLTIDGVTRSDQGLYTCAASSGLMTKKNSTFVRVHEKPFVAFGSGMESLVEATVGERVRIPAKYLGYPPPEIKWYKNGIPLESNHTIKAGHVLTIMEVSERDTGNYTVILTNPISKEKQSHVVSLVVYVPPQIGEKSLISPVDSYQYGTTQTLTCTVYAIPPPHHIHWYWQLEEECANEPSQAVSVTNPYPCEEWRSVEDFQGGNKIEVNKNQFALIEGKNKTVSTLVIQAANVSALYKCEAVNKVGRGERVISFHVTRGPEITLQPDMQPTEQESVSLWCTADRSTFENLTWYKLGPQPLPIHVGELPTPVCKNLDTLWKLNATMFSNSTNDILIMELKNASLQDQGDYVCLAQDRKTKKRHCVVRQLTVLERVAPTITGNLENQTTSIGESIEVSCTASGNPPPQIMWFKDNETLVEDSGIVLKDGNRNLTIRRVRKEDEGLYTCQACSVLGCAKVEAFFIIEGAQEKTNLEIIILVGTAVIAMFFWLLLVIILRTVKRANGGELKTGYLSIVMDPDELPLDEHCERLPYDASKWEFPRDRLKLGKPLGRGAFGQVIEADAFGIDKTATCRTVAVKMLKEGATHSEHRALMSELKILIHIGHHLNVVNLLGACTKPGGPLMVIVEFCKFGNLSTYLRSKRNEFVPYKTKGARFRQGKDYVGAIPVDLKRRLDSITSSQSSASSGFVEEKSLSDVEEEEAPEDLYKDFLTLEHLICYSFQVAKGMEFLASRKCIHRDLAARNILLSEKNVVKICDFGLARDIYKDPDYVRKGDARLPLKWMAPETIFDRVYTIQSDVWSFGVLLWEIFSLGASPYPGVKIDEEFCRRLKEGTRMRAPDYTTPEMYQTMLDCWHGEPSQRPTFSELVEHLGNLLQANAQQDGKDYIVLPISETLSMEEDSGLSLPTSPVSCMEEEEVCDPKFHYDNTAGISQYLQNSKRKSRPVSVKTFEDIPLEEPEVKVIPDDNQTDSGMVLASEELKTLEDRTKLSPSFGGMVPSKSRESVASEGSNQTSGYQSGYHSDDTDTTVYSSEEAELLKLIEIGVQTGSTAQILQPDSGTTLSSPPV

[2] = target: Epidermal growth factor receptor (Homo sapiens) (UniProt P00533); assay: Inhibition of EGFR (unknown origin) using Poly (Glu, Tyr) 4:1 as substrate at 1 uM preincubated with substrate followed by enzyme challenge for 1 hr by ELISA relative to control
[3] = tested on: HUVEC; assay: Antiproliferative activity against human HUVEC cells expressing VEGFR2 assessed as reduction in cell growth incubated for 48 hrs by MTT assay; format: functional, cell-based
[4] = tested on: HepG2; assay: Antiproliferative activity against human HepG2 cells expressing VEGFR2 assessed as reduction in cell growth incubated for 48 hrs by MTT assay; format: functional, cell-based; conditions: HepG2, 48 h
[5] = tested on: A549; assay: Antiproliferative activity against human A549 cells expressing EGFR assessed as reduction in cell growth incubated for 48 hrs by MTT assay; format: functional, cell-based; conditions: A549, 48 h
[6] = tested on: MDA-MB-231; assay: Antiproliferative activity against human MDA-MB-231 cells expressing EGFR assessed as reduction in cell growth incubated for 48 hrs by MTT assay; format: functional, cell-based; conditions: MDA-MB-231, 48 h
[7] = target: Platelet-derived growth factor receptor alpha (Homo sapiens) (UniProt P16234); assay: Inhibition of PDGFRalpha (unknown origin) at 1 uM
Chain of Platelet-derived growth factor receptor alpha (Homo sapiens) (P16234 whole entry): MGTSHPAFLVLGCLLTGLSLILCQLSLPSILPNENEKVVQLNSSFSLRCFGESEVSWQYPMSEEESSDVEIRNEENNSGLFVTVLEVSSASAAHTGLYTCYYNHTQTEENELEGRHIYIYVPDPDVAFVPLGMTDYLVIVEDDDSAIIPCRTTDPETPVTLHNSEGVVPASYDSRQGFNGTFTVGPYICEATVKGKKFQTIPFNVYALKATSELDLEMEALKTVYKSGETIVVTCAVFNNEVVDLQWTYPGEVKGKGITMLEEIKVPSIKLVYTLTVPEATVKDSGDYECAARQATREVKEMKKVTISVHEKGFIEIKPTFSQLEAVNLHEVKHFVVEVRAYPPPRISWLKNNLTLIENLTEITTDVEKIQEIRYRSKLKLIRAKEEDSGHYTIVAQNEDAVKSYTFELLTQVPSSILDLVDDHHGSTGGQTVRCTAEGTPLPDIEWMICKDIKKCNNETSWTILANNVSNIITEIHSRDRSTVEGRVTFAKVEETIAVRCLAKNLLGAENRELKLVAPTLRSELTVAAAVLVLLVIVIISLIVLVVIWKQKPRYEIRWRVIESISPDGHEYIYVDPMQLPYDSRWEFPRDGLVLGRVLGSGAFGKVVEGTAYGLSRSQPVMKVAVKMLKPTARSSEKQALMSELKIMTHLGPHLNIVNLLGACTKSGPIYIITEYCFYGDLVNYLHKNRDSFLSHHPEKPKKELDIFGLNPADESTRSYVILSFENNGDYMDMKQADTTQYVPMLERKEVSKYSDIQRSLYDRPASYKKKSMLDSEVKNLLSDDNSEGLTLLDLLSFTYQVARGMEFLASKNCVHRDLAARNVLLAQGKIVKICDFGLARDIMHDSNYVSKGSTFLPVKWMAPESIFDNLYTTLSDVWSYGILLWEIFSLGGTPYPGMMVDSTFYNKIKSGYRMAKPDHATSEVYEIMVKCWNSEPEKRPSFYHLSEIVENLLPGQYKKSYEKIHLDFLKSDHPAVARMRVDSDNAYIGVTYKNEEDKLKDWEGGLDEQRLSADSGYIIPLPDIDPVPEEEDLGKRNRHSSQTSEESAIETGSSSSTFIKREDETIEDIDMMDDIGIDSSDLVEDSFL

[8] = target: Platelet-derived growth factor receptor beta (Homo sapiens) (UniProt P09619); assay: Inhibition of PDGFRbeta (unknown origin) at 1 uM
Chain of Platelet-derived growth factor receptor beta (Homo sapiens) (P09619 whole entry): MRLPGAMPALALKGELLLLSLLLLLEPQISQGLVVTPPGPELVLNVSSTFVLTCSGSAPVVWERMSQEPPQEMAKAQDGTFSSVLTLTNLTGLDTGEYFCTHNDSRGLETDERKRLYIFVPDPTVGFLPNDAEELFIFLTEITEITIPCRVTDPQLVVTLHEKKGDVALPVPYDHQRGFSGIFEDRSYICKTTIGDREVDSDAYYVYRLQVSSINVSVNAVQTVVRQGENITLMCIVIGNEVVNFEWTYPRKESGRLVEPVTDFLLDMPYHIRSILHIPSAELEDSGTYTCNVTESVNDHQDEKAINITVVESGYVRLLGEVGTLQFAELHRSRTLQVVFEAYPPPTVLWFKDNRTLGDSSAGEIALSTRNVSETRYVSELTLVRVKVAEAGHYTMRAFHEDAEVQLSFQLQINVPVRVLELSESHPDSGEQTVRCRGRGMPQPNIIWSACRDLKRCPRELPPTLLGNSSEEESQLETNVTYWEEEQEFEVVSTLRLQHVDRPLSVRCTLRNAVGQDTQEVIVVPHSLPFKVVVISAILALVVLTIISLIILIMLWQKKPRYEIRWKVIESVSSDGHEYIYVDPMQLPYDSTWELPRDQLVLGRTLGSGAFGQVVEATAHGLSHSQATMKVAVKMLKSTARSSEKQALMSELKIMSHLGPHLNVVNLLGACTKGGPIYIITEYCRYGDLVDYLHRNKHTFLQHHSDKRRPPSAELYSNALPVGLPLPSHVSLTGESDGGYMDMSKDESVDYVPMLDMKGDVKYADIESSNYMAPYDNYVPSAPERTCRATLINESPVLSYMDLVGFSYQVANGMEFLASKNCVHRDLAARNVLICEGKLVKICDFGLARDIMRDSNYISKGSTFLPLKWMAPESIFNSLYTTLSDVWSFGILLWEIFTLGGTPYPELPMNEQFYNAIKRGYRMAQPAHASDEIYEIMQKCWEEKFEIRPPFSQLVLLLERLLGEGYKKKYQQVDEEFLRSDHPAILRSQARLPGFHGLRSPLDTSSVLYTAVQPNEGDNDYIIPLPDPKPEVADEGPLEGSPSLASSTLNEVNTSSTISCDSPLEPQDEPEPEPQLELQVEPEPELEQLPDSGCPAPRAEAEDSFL

[9] = target: Vascular endothelial growth factor receptor 1 (Homo sapiens) (UniProt P17948); assay: Inhibition of FLT1 (unknown origin) at 1 uM
[10] = target: Vascular endothelial growth factor receptor 3 (Homo sapiens) (UniProt P35916); assay: Inhibition of FLT4 (unknown origin) 1 uM
[11] = target: Hepatocyte growth factor receptor (Homo sapiens) (UniProt P08581); assay: Inhibition of MET (unknown origin) at 1 uM
Chain of Hepatocyte growth factor receptor (Homo sapiens) (P08581 whole entry): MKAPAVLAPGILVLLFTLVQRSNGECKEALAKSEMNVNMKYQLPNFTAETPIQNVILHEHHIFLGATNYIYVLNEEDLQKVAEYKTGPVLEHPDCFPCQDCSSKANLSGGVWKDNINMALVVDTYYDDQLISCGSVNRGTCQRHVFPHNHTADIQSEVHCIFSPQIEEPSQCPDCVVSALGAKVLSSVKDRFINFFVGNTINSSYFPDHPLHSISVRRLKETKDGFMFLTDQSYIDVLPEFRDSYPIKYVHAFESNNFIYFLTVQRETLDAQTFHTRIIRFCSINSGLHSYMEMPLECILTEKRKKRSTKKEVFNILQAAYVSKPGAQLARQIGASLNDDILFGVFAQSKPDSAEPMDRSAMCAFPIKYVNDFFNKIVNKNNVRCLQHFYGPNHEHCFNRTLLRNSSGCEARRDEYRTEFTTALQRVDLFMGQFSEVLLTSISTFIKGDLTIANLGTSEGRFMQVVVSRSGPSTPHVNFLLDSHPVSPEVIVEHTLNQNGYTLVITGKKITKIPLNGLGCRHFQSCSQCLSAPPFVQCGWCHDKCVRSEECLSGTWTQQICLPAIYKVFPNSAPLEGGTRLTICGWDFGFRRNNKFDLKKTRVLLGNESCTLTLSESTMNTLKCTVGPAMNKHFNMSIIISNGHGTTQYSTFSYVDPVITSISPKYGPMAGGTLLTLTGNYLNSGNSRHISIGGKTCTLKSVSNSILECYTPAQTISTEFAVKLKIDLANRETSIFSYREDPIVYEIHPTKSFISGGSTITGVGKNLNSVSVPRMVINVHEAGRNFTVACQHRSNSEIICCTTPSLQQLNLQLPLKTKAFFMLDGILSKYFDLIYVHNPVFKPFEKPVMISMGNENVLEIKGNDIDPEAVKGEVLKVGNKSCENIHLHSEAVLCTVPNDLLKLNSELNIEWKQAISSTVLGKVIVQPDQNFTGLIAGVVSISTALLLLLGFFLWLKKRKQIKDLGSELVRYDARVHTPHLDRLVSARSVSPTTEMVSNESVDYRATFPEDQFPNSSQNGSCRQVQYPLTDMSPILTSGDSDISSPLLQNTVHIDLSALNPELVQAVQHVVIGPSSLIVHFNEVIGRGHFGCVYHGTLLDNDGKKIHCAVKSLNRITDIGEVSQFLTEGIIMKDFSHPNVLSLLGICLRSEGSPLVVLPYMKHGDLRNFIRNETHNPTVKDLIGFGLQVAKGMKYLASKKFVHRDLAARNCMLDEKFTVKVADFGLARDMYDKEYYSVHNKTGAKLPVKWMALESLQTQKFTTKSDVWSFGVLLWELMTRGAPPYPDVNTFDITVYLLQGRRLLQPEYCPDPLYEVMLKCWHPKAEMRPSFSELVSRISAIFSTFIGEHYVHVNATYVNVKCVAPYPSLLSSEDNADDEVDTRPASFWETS

[12] = Cytotoxicity against human LO2 cells assessed as reduction in cell viability at 10 uM relative to control; format: cell-based, L02; conditions: read-out: INH
[13] = tested on: Chorioallantoic membrane; assay: Antiangiogenic activity in chicken chorioallantoic membrane assessed as reduction in number of blood vessels at 0.1 nM per egg measured after 48 hrs by CAM assay relative to control; format: functional, cell membranes; conditions: Gallus gallus
[14] = tested on: Chorioallantoic membrane; assay: Antiangiogenic activity in chicken chorioallantoic membrane assessed as reduction in number of blood vessels at 1 nM per egg measured after 48 hrs by CAM assay relative to control; format: functional, cell membranes; conditions: Gallus gallus
[15] = tested on: Chorioallantoic membrane; assay: Antiangiogenic activity in chicken chorioallantoic membrane assessed as reduction in number of blood vessels at 10 nM per egg measured after 48 hrs by CAM assay relative to control; format: functional, cell membranes; conditions: Gallus gallus
[16] = tested on: Chorioallantoic membrane; assay: Antiangiogenic activity in chicken chorioallantoic membrane assessed as reduction in number of blood vessels measured after 48 hrs by CAM assay; format: functional, cell membranes; conditions: Gallus gallus
[17] = tested on: HepG2; assay: Induction of apoptosis in human HepG2 cells assessed as apoptotic cells at 1 nM incubated for 24 hrs by dUTP-FITC/PI staining based flow cytometry (reference value: 3.3%); format: functional
[18] = tested on: HepG2; assay: Induction of apoptosis in human HepG2 cells assessed as apoptotic cells at 10 nM incubated for 24 hrs by dUTP-FITC/PI staining based flow cytometry (reference value: 3.3%); format: functional
[19] = tested on: HepG2; assay: Induction of apoptosis in human HepG2 cells assessed as necrotic cells at 1 nM incubated for 24 hrs by dUTP-FITC/PI staining based flow cytometry (reference value: 10.2%); format: functional
[20] = tested on: HepG2; assay: Induction of apoptosis in human HepG2 cells assessed as necrotic cells at 10 nM incubated for 24 hrs by dUTP-FITC/PI staining based flow cytometry (reference value: 10.2%); format: functional
[21] = tested on: HUVEC; assay: Induction of apoptosis in human HUVEC cells assessed as apoptotic cells at 1 nM incubated for 24 hrs by dUTP-FITC/PI staining based flow cytometry (reference value: 4.9%); format: functional
[22] = tested on: HUVEC; assay: Induction of apoptosis in human HUVEC cells assessed as apoptotic cells at 10 nM incubated for 24 hrs by dUTP-FITC/PI staining based flow cytometry (reference value: 4.9%); format: functional
[23] = tested on: HUVEC; assay: Induction of apoptosis in human HUVEC cells assessed as necrotic cells at 1 nM incubated for 24 hrs by dUTP-FITC/PI staining based flow cytometry (reference value: 6.9%); format: functional
[24] = tested on: HUVEC; assay: Induction of apoptosis in human HUVEC cells assessed as necrotic cells at 10 nM incubated for 24 hrs by dUTP-FITC/PI staining based flow cytometry (reference value: 6.9%); format: functional
[25] = tested on: HepG2; assay: Cell cycle arrest in human HepG2 cells assessed as accumulation at G0/G1 phase at 1 nM incuabted for 24 hrs by PI staining based flow cytometry (reference value: 47.9%); format: functional
[26] = tested on: HepG2; assay: Cell cycle arrest in human HepG2 cells assessed as accumulation at G0/G1 phase at 10 nM incuabted for 24 hrs by PI staining based flow cytometry (reference value: 47.9%); format: functional
[27] = tested on: HepG2; assay: Cell cycle arrest in human HepG2 cells assessed as accumulation at S phase at 1 nM incuabted for 24 hrs by PI staining based flow cytometry (reference value: 9.8%); format: functional
[28] = tested on: HepG2; assay: Cell cycle arrest in human HepG2 cells assessed as accumulation at S phase at 10 nM incuabted for 24 hrs by PI staining based flow cytometry (reference value: 9.8%); format: functional
[29] = tested on: HepG2; assay: Cell cycle arrest in human HepG2 cells assessed as accumulation at G2/M phase at 1 nM incuabted for 24 hrs by PI staining based flow cytometry (reference value: 42.3%); format: functional
[30] = tested on: HepG2; assay: Cell cycle arrest in human HepG2 cells assessed as accumulation at G2/M phase at 10 nM incuabted for 24 hrs by PI staining based flow cytometry (reference value: 42.3%); format: functional
[31] = tested on: HUVEC; assay: Cell cycle arrest in human HUVEC cells assessed as accumulation at G0/G1 phase at 1 nM incuabted for 24 hrs by PI staining based flow cytometry (reference value: 43.2%); format: functional
[32] = tested on: HUVEC; assay: Cell cycle arrest in human HUVEC cells assessed as accumulation at G0/G1 phase at 10 nM incuabted for 24 hrs by PI staining based flow cytometry (reference value: 43.2%); format: functional
[33] = tested on: HUVEC; assay: Cell cycle arrest in human HUVEC cells assessed as accumulation at S phase at 1 nM incuabted for 24 hrs by PI staining based flow cytometry (reference value: 10.4%); format: functional
[34] = tested on: HUVEC; assay: Cell cycle arrest in human HUVEC cells assessed as accumulation at S phase at 10 nM incuabted for 24 hrs by PI staining based flow cytometry (reference value: 10.4%); format: functional
[35] = tested on: HUVEC; assay: Cell cycle arrest in human HUVEC cells assessed as accumulation at G2/M phase at 1 nM incuabted for 24 hrs by PI staining based flow cytometry (reference value: 46.4%); format: functional
[36] = tested on: HUVEC; assay: Cell cycle arrest in human HUVEC cells assessed as accumulation at G2/M phase at 10 nM incuabted for 24 hrs by PI staining based flow cytometry (reference value: 46.4%); format: functional
[37] = tested on: HepG2; assay: Cell cycle arrest in human HepG2 cells assessed as accumulation at G0/G1 phase incuabted for 24 hrs by PI staining based flow cytometry; format: functional
[38] = tested on: HUVEC; assay: Cell cycle arrest in human HUVEC cells assessed as accumulation at G0/G1 phase incuabted for 24 hrs by PI staining based flow cytometry; format: functional
[39] = target: T1, Vascular endothelial growth factor receptor 2; assay: Inhibition of VEGFR2 in human HUVEC cells assessed as reduction in phosphorylation of VEGFR2 at 2 to 4 uM incubated for 24 hrs by Western blot analysis; format: cell-based
[40] = target: T1, Vascular endothelial growth factor receptor 2; conditions: at 1 µM
Description: Inhibition of VEGFR2 (unknown origin) using Poly (Glu, Tyr) 4:1 as substrate at 1 uM preincubated with substrate followed by enzyme challenge for 1 hr by ELISA relative to control

COc1ccc(CC(=O)Nc2ccc3[nH]c(-c4ccc(Cl)cc4)nc3c2)cc1
IC50 [1]: 51.4 nM | inhibition [2]: 58.3% | IC50 [3]: 1470 nM | IC50 [4]: 2570 nM | IC50 [5]: 73800 nM | IC50 [6]: 57300 nM | inhibition [7]: -3.5% | inhibition [8]: 2.7% | inhibition [9]: 26.1% | inhibition [10]: 18.5% | inhibition [11]: -3.6% | cytotoxicity at 10 µM [12]: 56.4% | inhibition [13]: 28% | inhibition [14]: 51% | inhibition [15]: 79% | inhibition [16]: Dose-dependent effect | Activity [17]: 13.7% | Activity [18]: 28.1% | Activity [19]: 7.3% | Activity [20]: 5.9% | Activity [21]: 18.9% | Activity [22]: 34.3% | Activity [23]: 6.9% | Activity [24]: 2.5% | Activity [25]: 55.7% | Activity [26]: 68% | Activity [27]: 8.1% | Activity [28]: 6.7% | Activity [29]: 36.2% | Activity [30]: 25.3% | Activity [31]: 59.3% | Activity [32]: 71.4% | Activity [33]: 8.9% | Activity [34]: 7.3% | Activity [35]: 31.8% | Activity [36]: 21.3% | Activity [37]: Dose-dependent effect | Activity [38]: Dose-dependent effect | inhibition [39]: Active | inhibition [40]: 103%
